Like-named read-outs stand apart in the source and are kept apart here.
Columns and labels:
[1] = system: tobacco leaf disks; assay: Norflurazone resistance of tobacco leaf disks transformed with PDSM genes; conditions: Agrobacterium transformation of tobacco leaf disks; various norflurazone concentrations
Protocol: Other aspects of the invention concern the discovery of several mutants of the phytoene desaturase gene that confer resistance to the herbicide norflurazone (e.g., SEQ. ID. Nos.10, 11, and 12). These herbicide resistance genes were used as selectable markers in the transformations above. Typically, the selection was accomplished by introducing the transformed plant tissue to the norflurazone (e.g., 0.005 uM-0.1 uM conc.). That is, the concentration of norflurazone that can be used to select positive transformants containing a norflurazone resistance gene, as described herein can be at least, less than, greater than, or equal to 0.005, 0.006, 0.007, 0.008, 0.009, 0.01, 0.02, 0.03, 0.04, 0.05, 0.06, 0.07, 0.08, 0.09, 0.1, 0.2, 0.3, 0.4, 0.5, 0.6, 0.7, 0.8, 0.9, or 1.0 uM. Preferably, less than or equal to 0.05 uM concentration of norflurazone is used when selecting transformants with Flue-cured tobacco and less than or equal to 0.0125 uM concentration norflurazone is used when selecting transformants with Burley tobacco. As the plantlet develops, selection was accomplished by differentiating the green shoots (positive transformants) from the yellow or white shoots (negative transformants). Once selection was made, the herbicide was removed and the plantlet was allowed to develop in the greenhouse.
The norflurazone resistant phytoene desaturase mutants (PDSM-1, PDSM-2, and PDSM-3) were generated by site-directed mutagenesis of particular regions of the gene believed to be involved in binding of the herbicide. Constructs carrying the various PDSM genes were then transferred to tobacco leaf disks by conventional Agrobacterium transformation and the resistance to norflurazone was analyzed at various concentrations. After several iterations, the mutants described as SEQ. ID. […] Accordingly, aspects of the invention concern the PDSM genes described herein, their use in plants as selectable markers to identify plant cells that contain a transformed gene, whether in tissue culture or in the field, and methods of identifying new PDSM genes that confer norflurazone resistance.

[2] = system: A549 cells; assay: γH2AX DNA damage assay, A549 cells exposed to whole smoke or vapor phase of smoke (Example 2); assay type: cell-based, human; conditions: for suppression of DNA damage (γH2AX): 25 mM NAC present during exposure; for effect of NAC on DNA damage: 25 mM NAC during exposure (FIG. 10); for IC50: Homo sapiens, from graph FIG. 11, read-out: concentration of NAC that reduced DNA damage by 50%
[3] = system: A549 cells; assay: Clonogenic survival assay (Example 3); assay type: cell-based
Protocol: A clonogenic survival assay was used to study the ability of tobaccos and tobacco products to impact the proliferation of cells. The experiment involves four major steps: (1) inoculate cells into culture dishes and incubate for 24-48 hours; (2) upon reaching the logarithmic phase of growth, the treatment is applied; the treatment in this case is freshly prepared and diluted CS for increasing periods of time; (3) the cells are then allowed to recover for a set number of hours (up to 24), then the cells are trypsinized, replated at specific dilutions, and allowed to continue growing for 5-7 days; the number of cells used depends largely on the plating efficiency of the cell line and must be determined empirically prior to the experiment; and (4) at the conclusion of the experiment, the cells are fixed, stained, and counted. The primary measure is to count surviving colonies of 25-50 cells which is presented as the percentage of cells which survived the treatment. A graphical representation of survival versus exposure time to CS is then generated. The surviving fraction is determined by dividing the number of colonies in the dish by the number of the colonies in the control (non-treated) dish.
A549 cells were exposed to smoke as previously described (see above). Following smoke exposure the medium is aspirated and the cells rinsed refed with 37° C. BEGM and placed in a 37° C., 5% CO2 humidified incubator for two to three hours. The cells are harvested by trypsinization with trypsin-EDTA (0.25% trypsin-0.38 mg/ml EDTA, Invitrogen). Cells are centrifuged at 260×g for 8 min. Cell pellets are resuspended in 1 ml of Ham's F-12K medium, 10% FBS (complete medium) per pellet and counted. Cells are serially diluted so that the mock treated have ˜65 cells per well and smoke treated have ˜300 cells per well when seeded onto 96-well flat bottom tissue culture plates; one plate per condition. The plates are incubated for five days in a 37° C., 5% CO2 humidified incubator. The colonies of cells are fixed with 5% formaldehyde/PBS and colored with 0.8% crystal violet solution for visualization. The colonies are counted with the aid of a macroscopic dissecting microscope. The cloning efficiency results are expressed in relation to the mock exposed cells. Unless otherwise indicated, each bar in the graphs represents three replicate data points per experiment.
In yet another series of experiments, the effect of NAC on cell death caused by the VAPOR phase of smoke from different cigarettes was evaluated. A549 cells were exposed to the vapor phase of smoke for 20 min by inserting a Cambridge filter pad immediately after the cigarette in the smoking apparatus so as to filter out the particulate matter (“tar”) and leave only the vapor phase. […]

[4] = system: NHBE cells; assay: γH2AX DNA damage assay, NHBE cells exposed to whole smoke or vapor phase of smoke (Example 2); assay type: cell-based, human
Source text: In order to compare DNA damage as a function of the cell's position in the cell cycle, γH2AX values were normalized to DNA content since histone content doubles as cells proceed from G1 to G2 phase. Thus, in order to determine any change in histone H2AX phosphorylation independent of changes in histone/DNA content or DNA ploidy, the values for S and G2M phase populations, gated according to DNA content, were multiplied by 0.75 and 0.5, respectively. In instances where “normalized” values of γH2AX are presented, these values were obtained by subtracting the mean values of each cell cycle population (or the total population) from the mean of the mock-treated population whose γH2AX values represent “scheduled” γH2AX expression. In all instances, the values presented represent the mean γH2AX fluorescence of the population; typically 3-5×10^3 cells were analyzed for each condition.
The response of NHBE cells to whole smoke from IM 16 cigarettes was more or less identical to that observed for A549 cells (FIG. 7C). The one difference between the two cell lines was that S phase cells in NHBE cultures always expressed higher “scheduled” amounts of γH2AX.
In the next series of experiments, it was determined that DNA damage caused by whole smoke can be mitigated by the presence of NAC. Using a standardized set of conditions (20 min of exposure followed by a 1 h recovery), DNA damage caused by whole smoke from IM 16 cigarettes was assayed in both A549 and NHBE cells. NAC at a concentration of 25 mM was either absent or present during exposure and absent or present during the 1 h recovery time. In this instance, the background or “scheduled” γH2AX expression observed in Mock-treated cells was subtracted from each measurement. The remaining fluorescence should be indicative of the level of DNA DSBs under each set of conditions.
The vapor phase from IM 16 CS cause only about 30% (29.7%) of the damage caused by whole smoke whereas the vapor phase of smoke from Quest 1® caused 97% less damage than whole smoke from IM 16 cigarettes.

Molecule: PDSM-1: Arabidopsis phytoene desaturase mutant gene, T to G at position 1478 (Valine to Glycine at residue 493)
- resistance to norflurazone [1]: confer resistance to norflurazone

Molecule: CC(=O)N[C@@H](CS)C(=O)O [NAC, N-acetyl-L-cysteine]
- effect of NAC on vapor phase damage ([2]; A549, each cell cycle phase, vapor phase from Quest 1 and Quest 3): reduced damage to background levels
- suppression of DNA damage (γH2AX) ([2]; A549, entire population, IM 16 whole smoke 20 min, 1 h recovery): greater than 80%
- suppression of γH2AX ([2]; A549, entire population, IM 16 whole smoke, 25 mM NAC during exposure and during 1 h recovery): 90%
- mitigation of DNA damage ([2]; A549, IM 16 whole smoke, 25 mM NAC applied to the media following exposure only): did nothing to mitigate the DNA damage
- effect of NAC on DNA damage ([2]; A549, smoke from IM 16): dramatically reduced the effects of smoke
- effect of NAC on DNA damage ([2]; A549, smoke from Omni): reduced the damage to near background levels
- effect of NAC on DNA damage ([2]; A549, smoke from Quest 3): reduced to background levels
- reduction of γH2AX by NAC ([2]; A549, vapor phase of smoke from IM 16, NAC during exposure): 93.2%
- reduction of γH2AX by NAC ([2]; A549, vapor phase of smoke from Quest 1, NAC during exposure): 98.9%
- reduction of γH2AX by NAC ([2]; A549, vapor phase of smoke from Quest 3, NAC during exposure): 100%
- reduction of γH2AX by NAC ([2]; A549, whole smoke from IM 16, 25 mM NAC during exposure): 89.1%
- suppression of DNA damage (γH2AX) ([2]; A549 G1 cells, IM 16 whole smoke): 91%
- reduction of damage by NAC ([2]; A549 G1 phase, vapor phase of smoke from IM 16): 98.5%
- suppression of DNA damage (γH2AX) ([2]; A549 G2M cells, IM 16 whole smoke): 88%
- reduction of damage by NAC ([2]; A549 G2M phase, vapor phase of smoke from IM 16): 92.2%
- suppression of DNA damage (γH2AX) ([2]; A549 S phase cells, IM 16 whole smoke): 82%
- reduction of damage by NAC ([2]; A549 S phase, vapor phase of smoke from IM 16): 89.0%
- concentration dependence of NAC protection ([2]; G1 and G2M A549 cells, IM 16 whole smoke 20 min, 1 h recovery): began to decrease when as little as 1 mM NAC was present
- IC50 ([2]; A549, G1 phase A549 cells, IM 16 whole smoke): ~4.5 mM
- IC50 ([2]; A549, G2M phase A549 cells, IM 16 whole smoke): ~7.5 mM
- IC50 ([2]; A549, S phase A549 cells, IM 16 whole smoke): ~2.6 mM
- concentration dependence of NAC protection ([2]; S phase A549 cells, IM 16 whole smoke 20 min, 1 h recovery): unaffected by the presence of NAC up to a concentration of 5 mM
- protection of cell viability by NAC ([3]; 20 min IM16 smoke, various concentrations of NAC (FIG. 16)): protected the viability of the cells in a dose-dependent manner
- protection of cell viability by NAC ([3]; 20 min Omni or IM16 smoke, 25 mM NAC): partially protected
- protection of cell viability by NAC ([3]; 20 min Quest 3 smoke, 25 mM NAC): completely protected
- protection of cell viability by NAC ([3]; all vapor phase exposures, 25 mM NAC): protected the cells against viability loss
- decrease of DNA damage by NAC ([4]; NHBE G1 cells, IM 16 whole smoke, 25 mM NAC present during exposure): ~69%
- decrease of DNA damage by NAC ([4]; NHBE G2M cells, IM 16 whole smoke, 25 mM NAC present during exposure): about 65%
- protection by NAC ([4]; NHBE S phase cells, IM 16 whole smoke, 25 mM NAC present during exposure): afforded no protection
- protection by NAC ([4]; NHBE, IM 16 whole smoke, 25 mM NAC during exposure and recovery): small degree of additional protection
- effect of NAC on level of DNA damage ([4]; NHBE, IM 16 whole smoke, 25 mM NAC only during recovery): little effect on the level of DNA damage
- effect of NAC on vapor phase DNA damage ([4]; NHBE, vapor phase of IM 16, Quest 1 or Quest 3): abolished virtually all DNA damage
- effect of NAC on vapor phase damage ([4]; NHBE, vapor phase of smoke from IM 16 (FIG. 13)): to background levels or below
- effect of NAC on vapor phase damage ([4]; NHBE, vapor phase of smoke from Quest cigarettes): inhibited
- reduction of γH2AX by NAC ([4]; NHBE, whole smoke from IM 16, NAC during exposure): 77.9%

Molecule: PDSM-2: Arabidopsis phytoene desaturase mutant gene, G to C at position 863 (Arginine to Proline at residue 288)
- resistance to norflurazone [1]: confer resistance to norflurazone

Molecule: PDSM-3: Arabidopsis phytoene desaturase mutant gene, T to C at position 1226 (Leucine to Proline at residue 409)
- resistance to norflurazone [1]: confer resistance to norflurazone
